Laboratory results published in US8541415B2 (University of Pittsburgh—of the Commonwealth System of …, priority 2008, dated 2013).
Like-named read-outs stand apart in the source and are kept apart here.

Tests used:
HIV-1 strain NL4-3 = assay: microbe, parasite or virus in culture; format: cell-based; conditions: for activity at 5 µM / IC50: Human immunodeficiency virus 1, NL43, U-87 MG; for activity at 5 µM: 96 h, read-out: HIV p24% Control @ day 4; for Suppression of HIV replication: p24 release 4 days later, leads from yeast screen; for Inhibition of pseudotyped NL43 HIV-1 replication: FIGS. 1-3; for Anti-HIV activity (words, structure-activity comment on Table 1): 5 μM, p24 day 4
Description: (§1) Lead compounds from the yeast screen were evaluated for activity in a Nef-dependent HIV replication assay. For these experiments, U87MG astroglioma cells engineered to express the HIV-1 co-receptors CD4 and CXCR4 were employed. Replication of HIV-1 NL4-3 is dependent upon an intact viral nef gene in these cells, making this system suitable to evaluate leads from the Nef-directed screen. U87MG cells were infected with HIV-1 in the presence of the top five compounds identified in the yeast screen, and HIV replication was monitored as p24 release into the culture supernatant 4 days later, as known in the art. As known in the art, “p24” refers to a constituent protein of the capsid of HIV-1.
(§2) The data of Table 1 are presented as percent p24 release relative to control in the absence of compound. […] Data are expressed as percent viable cells relative to untreated control culture.
It is understood that “strongest” and like terms in the context of inhibitors identified in a library screen refer to compounds that inhibit at the lowest concentrations. For these experiments, the U87MG astroglioma cell line was used as a model system. […] U87MG cells were infected with HIV-1 strain NL4-3 as well as an isogenic variant that fails to express Nef (ΔNef), over a wide range of viral titers and in the presence of each compound at 5 μM. Viral replication was assessed as HIV p24 antigen release into the culture supernatant 4 and/or 5 days later. Methods for the assay of p24 in culture supernatant are well known in the art and include, for example without limitation, immunochemical methods.

U87MG cells = conditions: human
Description: as §1, §2

[1] = test system: HIV-ΔNef mutant (NL4-3 that fails to express Nef); assay: Replication of Nef-defective HIV in U87MG cells (p24 ELISA); conditions: p24 ELISA day 5, FIG. 8, for Ma even at 10 μM
Description: HIV p24 release was determined by ELISA at day 5 following the addition of the DFP-analogs. […] U87MG cells were infected a viral density of 500 pg/ml. p24 as determined by ELISA.
To address whether Nef is required for the anti-retroviral effects of these compounds, HIV replication assays in U87MG cells infected with either wild-type or Nef-defective HIV were carried out.
Viral replication was monitored by measuring p24 protein levels in the culture supernatant 4 days after infection by standard ELISA-based techniques. Test compounds were added to the culture 30 min prior to infection with HIV, and DMSO was used as the carrier solvent at a final concentration of 0.1%.
Nef:Hck-YEEI complex [2] = molecular target: T1, Nef:Hck-YEEI complex (Homo sapiens, UniProt P08631); conditions: Z'-Lyte dose-response, FIG. 7
Target sequence in this assay (P08631 with tags, fused parts or gaps isoform P08631-3, other chains not shown): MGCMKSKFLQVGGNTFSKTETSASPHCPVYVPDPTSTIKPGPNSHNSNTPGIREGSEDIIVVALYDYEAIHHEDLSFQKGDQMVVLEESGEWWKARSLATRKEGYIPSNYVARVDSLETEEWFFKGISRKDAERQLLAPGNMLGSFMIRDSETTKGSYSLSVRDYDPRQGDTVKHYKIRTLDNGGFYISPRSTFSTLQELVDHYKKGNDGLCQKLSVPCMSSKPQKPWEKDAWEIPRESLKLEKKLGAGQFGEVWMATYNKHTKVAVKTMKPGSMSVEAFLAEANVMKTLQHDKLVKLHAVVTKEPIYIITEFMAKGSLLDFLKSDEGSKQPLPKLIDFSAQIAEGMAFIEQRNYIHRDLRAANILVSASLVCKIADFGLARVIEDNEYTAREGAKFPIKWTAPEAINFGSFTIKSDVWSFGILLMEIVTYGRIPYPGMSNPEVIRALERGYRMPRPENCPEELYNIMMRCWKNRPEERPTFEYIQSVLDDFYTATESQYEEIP
Nef:Hck-YEEI complex [3] = molecular target: T1, Nef:Hck-YEEI complex
Target sequence in this assay (P03407 2-210): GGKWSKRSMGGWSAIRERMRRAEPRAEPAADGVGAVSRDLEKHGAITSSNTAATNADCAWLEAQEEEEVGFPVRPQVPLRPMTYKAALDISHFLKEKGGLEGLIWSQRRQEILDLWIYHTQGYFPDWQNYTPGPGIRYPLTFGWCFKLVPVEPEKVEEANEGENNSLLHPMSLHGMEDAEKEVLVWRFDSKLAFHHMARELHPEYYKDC
Target sequence in this assay (P08631 other isoform, or with tags, fused parts or gaps): as the sequence (P08631 with tags, fused parts or gaps isoform P08631-3, other chains not shown) above
Description: For the liquid growth assay, yeast strain W303a was co-transformed with the required plasmids, seeded at an initial density of OD600nm=0.05 units in SD/-U-T medium, and incubated for 21 h at 30° C.
Aliquots of yeast cultures used for the spot assay were grown in SD/-U-T medium plus galactose for 18 h. […] Aliquots of each lysate (0.2 OD600nm units) were separated via SDS-PAGE, transferred to PVDF membranes, and probed for protein phosphotyrosine content with a combination of the anti-phosphotyrosine antibodies PY99 (Santa Cruz Biotechnology, Santa Cruz, Calif.) and PY20 (Transduction Laboratories, Lexington, Ky.).
Yeast strain W303a was co-transformed with Hck-YEEI (SE0 ID NO: 4) and Nef expression plasmids and grown to an OD600nm of 0.05. Cells (100 μL) were plated in duplicate wells of a 96-well plate in the presence of each compound from the Chempiv kinase-biased inhibitor library (Chempiv, Inc., San Diego, Calif.). All compounds were initially screened at 10 μM with 0.5% DMSO as carrier solvent. […] Cultures were incubated at 30° C., and the OD60nm was measured at 0 and 22 h.
Nef:Hck-YEEI complex [4] = molecular target: T1, Nef:Hck-YEEI complex; assay: biochemical
Target sequence in this assay (P08631 with tags, fused parts or gaps isoform P08631-3, other chains not shown): as above
Nef:Hck-YEEI complex [5] = conditions: Z'-Lyte dose-response, FIG. 7A

Compound	activity at 5 µM (HIV-1 strain NL4-3) [%]	Cytotoxicity, Viable cell % control (U87MG cells; 96 h, 30 μM) [% control]	other results
CCOc1ccccc1Nc1nc2ccccc2nc1NS(=O)(=O)c1ccc(C)cc1 [Compound Q9]	60	100	–
c1ccc(-c2oc3ncnc(NCCCc4ccco4)c3c2-c2ccccc2)cc1 [IIIq, N-(3-(furan-2-yl)propyl) 5,6-diphenylfuro[2,3-d]pyrimidin-4-amine]	–	–	Effect on replication of HIV-ΔNef mutant [1]: Neither IIIm nor IIIq shows inhibition; IC50 (HIV-1 strain NL4-3; 120 h, read-out: IC50, wild-type HIV replication, U87MG cells, wild-type NL4-3, p24 ELISA day 5, FIG. 8): ≤ 1 µM; Inhibition of Nef:Hck complex (Nef:Hck-YEEI complex [2]): enhanced both potency and efficacy for the Nef:Hck complex vs. Hck alone
Nc1ncnc2oc(-c3ccco3)c(-c3ccco3)c12 [IIIc]	20	–	–
O=S(=O)(Nc1nc2ccccc2nc1Nc1ccc(O)cc1)c1ccccc1 [Compound Q11]	68	88	–
COc1ccc(Nc2nc3ccccc3nc2NS(=O)(=O)c2ccccc2)cc1 [Compound Q20]	119	89	–
COc1ccc(Nc2nc3ccccc3nc2NS(=O)(=O)c2ccc(C)cc2)c(OC)c1 [Compound Q8]	55	90	–
Cc1nc2sc(-c3nc4ccccc4[nH]3)c(N)c2c(C)c1Cl [IIa]	–	–	Suppression of HIV replication (HIV-1 strain NL4-3; U87MG cells): significantly suppressed HIV replication; Concentration up to which not cytotoxic (U87MG cells): > 50 µM
Cc1ccc(S(=O)(=O)Nc2nc3ccccc3nc2Nc2ccc3c(c2)OCCO3)cc1 [Compound Q15]	88	96	–
O=S(=O)(Nc1nc2ccccc2nc1Nc1ccc2ccccc2c1)c1ccc(Cl)cc1 [Compound Q21, 4-Chloro-N-[3-(naphthalen-2-ylamino)-quinoxalin-2-yl]-benzenesulfonamide]	–	–	Inhibition of pseudotyped NL43 HIV-1 replication (HIV-1 strain NL4-3; U87MG cells): potent inhibitors of viral infection; melting point: 222 to 224 °C
O=S(=O)(Nc1nc2ccccc2nc1Nc1cccc2ccccc12)c1ccccc1 [Compound Q4]	26	100	–
O=S(=O)(Nc1nc2ccccc2nc1Nc1ccccc1)c1ccccc1 [Compound Q7]	42	97	–
CCOc1ccc(S(=O)(=O)Nc2nc3ccccc3nc2Nc2ccc(OC)cc2)cc1 [Compound Q18]	112	99	–
O=S(=O)(Nc1nc2ccccc2nc1Nc1cccc(O)c1)c1ccccc1 [Compound Q19]	114	92	–
COc1ccc(Nc2nc3ccccc3nc2NS(=O)(=O)c2ccccc2)cc1OC [Compound Q17]	100	97	Anti-HIV activity (words, structure-activity comment on Table 1) (HIV-1 strain NL4-3; U87MG cells): one of the least active
OCCNc1ncnc2oc(-c3ccccc3)c(-c3ccccc3)c12 [IIIL]	93	94	–
COc1ccc(Nc2nc3ccccc3nc2NS(=O)(=O)c2ccc(C)cc2)cc1OC [Compound Q13]	82	91	–
c1ccc(-c2oc3ncnc(NCCCN4CCOCC4)c3c2-c2ccccc2)cc1 [IIIf]	47	99	–
O=S(=O)(Nc1nc2ccccc2nc1Nc1cccc2ccccc12)c1ccc(Cl)cc1 [Compound Q22, 4-Chloro-N-[3-(naphthalen-1-ylamino)-quinoxalin-2-yl]-benzenesulfonamide]	–	–	Selectivity wild-type vs Nef-deficient NL43 HIV-1 (HIV-1 strain NL4-3; U87MG cells infected with wild-type or Nef-deficient virus, FIG. 3): selective and more potent at inhibiting the replication of wild-type virus; Inhibition of pseudotyped NL43 HIV-1 replication (HIV-1 strain NL4-3; U87MG cells): potent inhibitors of viral infection; melting point: 262 to 265 °C

Compound	activity at 5 µM (HIV-1 strain NL4-3) [%]	Cytotoxicity, Viable cell % control (U87MG cells; 96 h, 30 μM) [% control]	other results
COc1ccc(OC)c(Nc2nc3ccccc3nc2NS(=O)(=O)c2ccc(Cl)cc2)c1 [Compound Q2]	10	100	–
O=C(Nc1ncnc2oc(-c3ccccc3)c(-c3ccccc3)c12)c1ccco1 [IIIh]	59	89	–
Cc1ccc(-c2oc3ncnc(N)c3c2-c2ccc(C)cc2)cc1 [IIId]	29	90	–
COc1ccc(Nc2nc3ccccc3nc2NS(=O)(=O)c2ccc(Cl)cc2)cc1OC [Compound Q3]	13	100	Anti-HIV activity (words, structure-activity comment on Table 1) (HIV-1 strain NL4-3; U87MG cells): one of the most active compounds
COc1ccc2nc(NS(=O)(=O)c3ccccc3)c(Nc3cc(OC)c(OC)c(OC)c3)nc2c1 [Compound Q10]	62	95	–
CN1CCN(C2CCC(n3cc(-c4ccc(Oc5ccccc5)cc4)c4c(N)ncnc43)CC2)CC1 (stereo not drawn) [Compound A-419259]	–	–	Tyrosine phosphorylation of yeast proteins (Nef:Hck-YEEI complex [3]; inhibitor-treated yeast cultures, anti-phosphotyrosine immunoblot): decrease in tyrosine phosphorylation of yeast proteins to control levels; Reversal of growth arrest compared with Nef PxxP mutation (Nef:Hck-YEEI complex [3]; liquid yeast cultures, 5 μM): nearly as effective as mutation of the Nef PxxP motif; Reversal of growth suppression induced by Nef:Hck-YEEI (Nef:Hck-YEEI complex [3]; liquid yeast cultures, OD 600 nm, at both 1 μM and 5 μM vs untreated cultures): significantly reversed the growth suppression
O=S(=O)(Nc1nc2ccccc2nc1Nc1ccc2ccccc2c1)c1ccccc1 [Compound Q1]	4	98	–
CCOc1ccc(S(=O)(=O)Nc2nc3ccccc3nc2Nc2ccccc2)cc1 [Compound Q16]	91	100	–
COc1ccc(Nc2nc3ccccc3nc2NS(=O)(=O)c2ccc(Cl)cc2)c(OC)c1 [Compound Q5]	26	96	–
c1ccc(-c2oc3ncnc(NCc4ccco4)c3c2-c2ccccc2)cc1 [IIIb]	8	109	–
O=S(=O)(Nc1nc2ccccc2nc1Nc1ccc2c(c1)OCCO2)c1ccc(Cl)cc1 [Compound Ia, 4-Chloro-N-[3-(2,3-dihydro-benzo[1,4]dioxin-6-ylamino)-quinoxalin-2-yl]-benzenesulfonamide]	–	–	IC50 (HIV-1 strain NL4-3; read-out: IC50, HIV replication, U87MG cells expressing CD4 and CXCR4, HIV-1 NL4-3, concentration-response): ~0.13 µM; Suppression of HIV replication (HIV-1 strain NL4-3; U87MG cells): significantly suppressed HIV replication; Concentration up to which not cytotoxic (U87MG cells): > 50 µM; melting point: 257 to 258 °C
OCCCNc1ncnc2oc(-c3ccccc3)c(-c3ccccc3)c12 [IIIa, 3-(5,6-diphenylfuro[2,3-d]pyrimidin-4-ylamino)propan-1-ol]	20	95	IC50 (Nef:Hck-YEEI complex [4]; IC50, Nef-induced Hck activation (Nef:Hck complex kinase activity), in vitro, peptide substrate, triplicate, FIG. 5B legend): 4 µM; IC50 (Nef:Hck-YEEI complex [4]; IC50, kinase activity of Nef:Hck-YEEI complex, dose response study, FIG. 5B, text b88): ~3 µM; Effect on replication of HIV-ΔNef mutant [1]: no effect; IC50 (HIV-1 strain NL4-3; 120 h, read-out: IC50, HIV-1 replication (viral p24 release), U87MG cells, HIV strain NL4-3, p24 ELISA 5 days later, FIG. 5C): 6 µM; HIV replication, p24 release (HIV-1 strain NL4-3; U87MG cells, HIV-1 NL4-3, compound at 5 μM, 4 and/or 5 days, FIG. 6): undetectable levels; IC50, wild-type HIV replication (HIV-1 strain NL4-3; U87MG cells, wild-type NL4-3, p24 ELISA day 5, FIG. 8): low μM range; Cytotoxicity against U87MG cells (U87MG cells; 96 h, 30 μM): neither DFP-4AP nor any of the other diphenylfuropyrimidine analogs displayed significant cytotoxicity; Increase in potency in the presence of Nef (Nef:Hck complex vs Hck alone) (Nef:Hck-YEEI complex [5]): 2 fold
c1ccc(-c2oc3ncnc(NCCN4CCOCC4)c3c2-c2ccccc2)cc1 [IIIe]	39	89	–
Nc1ccc(S(=O)(=O)Nc2nc3ccccc3nc2Nc2ccc3ccccc3c2)cc1 [Compound Q6]	40	92	–
O=C(O)CNc1ncnc2oc(-c3ccccc3)c(-c3ccccc3)c12 [IIIg]	58	100	–
COc1ccccc1Nc1nc2ccccc2nc1NS(=O)(=O)c1ccccc1 [Compound Q14]	87	93	–
COc1ccc(-c2oc3ncnc(N)c3c2-c2ccccc2)cc1 [IIIj]	73	97	–
